In patent US9815831B2, “3,5-disubstituted-3H-imidazo[4,5-B]pyridine and 3,5-disubstituted-3H-[1,2,3]triazolo[4,5-B] pyridine compounds as modulators of c-Met protein kinases” (Rhizen Pharmaceuticals SA, priority 2012, dated 2017):
Where two headings read alike, the source gives them in different places. One block for each molecule: values may come before it.

How the values were obtained:
[1] = tested on: MKN-45; assay: Inhibition of MKN-45 proliferation (MTT); format: cell-based, human; settings: Homo sapiens, MKN-45 proliferation; for inhibition at 0.1 µM: 100 nM, read-out: MKN45 % inhibition @ 100 nM; for GI50: read-out: MKN45 GI50
Experimental: 3. Inhibition of MKN-45 Proliferation:
Cell proliferation assays were carried out using the high Met expressing human gastric adenocarcinoma cell line, MKN-45, according to the following schedule: • Day 1: Cells were plated in 96-well plates in complete growth medium. • Day 2: Compounds at desired concentrations were added. • Day 5: Cell viability was determined using the 3-[4,5-dimethylthiazol-2-yl]-2,5-diphenyltetrazolium bromide (MTT) dye reduction test. Results: The results are as given as % Inhibition of MKN-45 proliferation at 100 nM and GI50 values in Table 4A to 4C above. 4. Inhibition of c-Met Kinase Phosphorylation in MKN-45 Cells: […]

[2] = molecular target: T1, human recombinant Met kinase (Homo sapiens, UniProt P08581); assay: Colorimetric determination of c-Met kinase activity (HTScan Met Kinase Assay Kit); format: biochemical; settings: for inhibition at 0.1 µM: 100 nM (cells without *), read-out: c-Met Enzyme % inhibition @ 100 nM; for inhibition: cells marked *: tested @ 300 nM, read-out: c-Met Enzyme % inhibition
T1 construct: purchased Cell Signalling Technology, Beverly, Mass
T1 sequence (P08581 25-1390): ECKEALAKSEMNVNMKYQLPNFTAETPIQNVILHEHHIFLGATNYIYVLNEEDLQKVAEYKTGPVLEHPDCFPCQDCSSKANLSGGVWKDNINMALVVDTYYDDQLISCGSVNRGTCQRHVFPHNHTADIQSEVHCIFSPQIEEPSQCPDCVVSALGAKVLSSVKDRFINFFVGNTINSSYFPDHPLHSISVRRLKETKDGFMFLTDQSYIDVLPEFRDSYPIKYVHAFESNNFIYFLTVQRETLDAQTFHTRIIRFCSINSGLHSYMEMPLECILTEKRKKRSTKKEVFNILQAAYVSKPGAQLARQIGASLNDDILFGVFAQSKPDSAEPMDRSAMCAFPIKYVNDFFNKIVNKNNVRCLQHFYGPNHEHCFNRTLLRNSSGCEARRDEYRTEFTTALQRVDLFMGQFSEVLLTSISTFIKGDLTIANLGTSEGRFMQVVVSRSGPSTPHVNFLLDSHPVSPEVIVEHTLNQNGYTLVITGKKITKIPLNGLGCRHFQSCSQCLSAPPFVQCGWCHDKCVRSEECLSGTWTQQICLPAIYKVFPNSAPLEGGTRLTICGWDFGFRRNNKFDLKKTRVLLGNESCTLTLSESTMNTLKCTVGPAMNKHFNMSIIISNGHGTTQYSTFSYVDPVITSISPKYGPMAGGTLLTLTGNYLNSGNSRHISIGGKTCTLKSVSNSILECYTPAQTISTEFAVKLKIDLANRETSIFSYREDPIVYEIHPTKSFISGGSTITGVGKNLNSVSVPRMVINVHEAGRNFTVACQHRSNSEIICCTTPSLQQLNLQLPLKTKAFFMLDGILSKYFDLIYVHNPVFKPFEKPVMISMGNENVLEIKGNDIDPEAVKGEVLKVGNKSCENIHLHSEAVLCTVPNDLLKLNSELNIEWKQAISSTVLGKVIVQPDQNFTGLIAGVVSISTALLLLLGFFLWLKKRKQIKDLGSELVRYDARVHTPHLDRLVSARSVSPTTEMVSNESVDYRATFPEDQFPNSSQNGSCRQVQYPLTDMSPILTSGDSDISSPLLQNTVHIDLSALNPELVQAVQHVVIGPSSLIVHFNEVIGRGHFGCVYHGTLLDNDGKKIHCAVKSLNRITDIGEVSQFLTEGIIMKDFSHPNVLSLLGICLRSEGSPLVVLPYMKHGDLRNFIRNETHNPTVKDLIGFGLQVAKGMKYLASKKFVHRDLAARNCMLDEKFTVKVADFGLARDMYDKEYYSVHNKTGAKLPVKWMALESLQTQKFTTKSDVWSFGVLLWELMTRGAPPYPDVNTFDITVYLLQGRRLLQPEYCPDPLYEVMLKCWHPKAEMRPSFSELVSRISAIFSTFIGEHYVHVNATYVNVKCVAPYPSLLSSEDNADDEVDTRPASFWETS
Excerpt: 1. MET Kinase Assay Protocol:
Colorimetric Determination of c-Met Kinase Activity
The receptor tyrosine kinase c-Met is a heterodimeric transmembrane glycoprotein involved in several cellular processes that aid in tumor progression. Phosphorylation of the tyrosine residues in the c-Met kinase domain is critical for its activity and the resulting down-stream effects. The colorimetric assay allows detection of the phosphorylated form of a biotinylated peptide upon activation of human recombinant Met kinase.
MET Kinase Assay Protocol:
c-Met Kinase activity shall be determined using an HTScan® Met Kinase Assay Kit (Cell Signalling Technology, Beverly, Mass.) with modifications. All incubations are carried out at room temperature. Briefly, 12.5 μl of a 4× reaction cocktail (DTT/Kinase buffer containing appropriate quantity of human Met kinase) is added to each well of a 96-well plate containing 12.5 μl pre-diluted compound of interest and incubated for 5 minutes. After the initial incubation, 25 μl/well of 2×ATP/biotinylated peptide is added and incubated for an additional 30 minutes. The reaction is terminated by the addition of 50 μl/well stop buffer (50 mM EDTA, pH 8.0). The reaction mixture (25 μl/well) is then transferred to a streptavidin coated plate (Perkin Elmer, Cat#4009-0010) containing 75 μl dH2O and incubated for 60 minutes. The plate is washed with 200 μl/well wash buffer (1×PBS, 0.05% Tween-20). After washing, 100 μl/well phospho-tyrosine mAb (1:1000 in wash buffer containing 1% BSA) is added and incubated for 60 minutes. After another round of washes, 100 μl/well europium labelled anti-mouse IgG (1:500 in wash buffer containing 1% BSA) is added and incubated for an additional 30 minutes. Following additional washes, 100 μl/well Delfia^(R) enhancement solution (Perkin Elmer, Cat#1244-105) is added and incubated for 45 minutes. Florescence is measured on a microplate reader (BMG Labtech., Germany) at 340 nm (excitation) and 615 nm (emission) for calculating % inhibition. Data generated can be analyzed further using Graphpad Prism (Graphpad software, San Diego Calif.) for determination of IC50.
Results: The results are as given below in Table 4A, 4B and 4C as % Inhibition or IC50 of c-Met

- GI50 ([1]; MKN-45, Table 4A): 50 to 100 nM
- inhibition at 0.1 µM ([2]; Table 4A): 75 to 100%
SMILES: O=C(NOCCO)c1ccc(-c2ccc3nnn(Cc4ccc5ncccc5c4)c3n2)cc1 [Example 22, N-(2-hydroxyethoxy)-4-(3-(quinolin-6-ylmethyl)-3H-[1,2,3]triazolo[4,5-b]pyridin-5-yl)benzamide]
- inhibition at 0.1 µM ([1]; MKN-45, Table 4A): 50 to 75%

- inhibition at 0.1 µM ([2]; Table 4A): 75 to 100%
SMILES: Cc1cc(-c2ccc3nnn(Cc4ccc5ncccc5c4)c3n2)ccc1C(=O)NOC(C)(C)CO [Example 39, N-(1-hydroxy-2-methylpropan-2-yloxy)-2-methyl-4-(3-(quinolin-6-ylmethyl)-3H-[1,2,3]triazolo[4,5-b]pyridin-5-yl)benzamide]
- inhibition at 0.1 µM ([1]; MKN-45, Table 4A): 75 to 100%

- GI50 ([1]; MKN-45, Table 4A): 25 to 50 nM
- inhibition at 0.1 µM ([2]; Table 4A): 75 to 100%
SMILES: CC(C)(O)CONC(=O)c1ccc(-c2ccc3nnn(Cc4ccc5ncccc5c4)c3n2)cc1F [Example 35, 2-fluoro-N-(2-hydroxy-2-methylpropoxy)-4-(3-(quinolin-6-ylmethyl)-3H-[1,2,3]triazolo[4,5-b]pyridin-5-yl)benzamide]
- inhibition at 0.1 µM ([1]; MKN-45, Table 4A): 75 to 100%

- inhibition at 0.1 µM ([2]; Table 4B): 75 to 100%
SMILES: Cc1cc(-c2ccc3ncn(Cc4ccc5ncccc5c4)c3n2)ccc1C(=O)NOCCO [Example 111, N-(2-Hydroxy-ethoxy)-2-methyl-4-(3-quinolin-6-ylmethyl-3H-imidazo[4,5-b]pyridin-5-yl)-benzamide]
- inhibition at 0.1 µM ([1]; MKN-45, Table 4B): < 25%

- inhibition at 0.1 µM ([2]; Table 4A): 75 to 100%
SMILES: Cc1cc(-c2ccc3nnn(Cc4ccc5ncccc5c4)c3n2)ccc1C(=O)NOC[C@H](C)O [Example 36, (S)—N-(2-hydroxypropoxy)-2-methyl-4-(3-(quinolin-6-ylmethyl)-3H-[1,2,3]triazolo[4,5-b]pyridin-5-yl)benzamide]

- GI50 ([1]; MKN-45, Table 4A): 100 to 250 nM
- inhibition at 0.1 µM ([2]; Table 4A): 75 to 100%
SMILES: CCOC(=O)CONC(=O)c1ccc(-c2ccc3nnn(Cc4ccc5ncccc5c4)c3n2)cc1Cl [Example 29, ethyl 2-(2-chloro-4-(3-(quinolin-6-ylmethyl)-3H-[1,2,3]triazolo[4,5-b]pyridin-5-yl)benzamidooxy)acetate]
- inhibition at 0.1 µM ([1]; MKN-45, Table 4A): < 25%

- inhibition at 0.1 µM ([2]; Table 4A): 75 to 100%
SMILES: Cc1cc(-c2ccc3nnn(Cc4ccc5ncccc5c4)c3n2)ccc1C(=O)NOCCOC(=O)C(C)(C)C [Example 45, 2-(2-methyl-4-(3-(quinolin-6-ylmethyl)-3H-[1,2,3]triazolo[4,5-b]pyridin-5-yl)benzamidooxy)ethyl pivalate]

- inhibition at 0.1 µM ([2]; Table 4A): 75 to 100%
SMILES: CC(=O)OCCONC(=O)c1ccc(-c2ccc3nnn(Cc4ccc5ncccc5c4)c3n2)cc1C [Example 43, 2-(2-methyl-4-(3-(quinolin-6-ylmethyl)-3H-[1,2,3]triazolo[4,5-b]pyridin-5-yl)benzamidooxy)ethyl acetate]

- inhibition at 0.1 µM ([2]; Table 4A): 75 to 100%
SMILES: Cc1cc(-c2ccc3nnn(Cc4ccc5ncccc5c4)c3n2)ccc1C(=O)NOCCOC(=O)c1ccccc1 [Example 46, 2-(2-methyl-4-(3-(quinolin-6-ylmethyl)-3H-[1,2,3]triazolo[4,5-b]pyridin-5-yl)benzamidooxy)ethyl benzoate]

- inhibition at 0.1 µM ([2]; Table 4C): 75 to 100%
SMILES: O=C1NCc2cc(-c3ccc4nnn(Cc5ccc6ncccc6c5)c4n3)ccc21 [Example 1032, 5-(3-Quinolin-6-ylmethyl-3H-[1,2,3]triazolo[4,5-b]pyridin-5-yl)-2,3-dihydro-isoindol-1-one]

- inhibition at 0.1 µM ([2]; Table 4B): 75 to 100%
SMILES: O=C(NOCCO)c1ccc(-c2ccc3ncn(Cc4ccc5ncccc5c4)c3n2)cc1Cl [Example 113, 2-Chloro-N-(2-hydroxy-ethoxy)-4-(3-quinolin-6-ylmethyl-3H-imidazo[4,5-b]pyridin-5-yl)-benzamide]

- inhibition at 0.1 µM ([2]; Table 4A): < 25%
SMILES: Cc1cc(-c2ccc3nnn(Cc4ccc5[nH]c(=O)ccc5c4)c3n2)ccc1C(=O)NOCCO [Example 25d, N-(2-hydroxyethoxy)-2-methyl-4-(3-((2-oxo-1,2-dihydroquinolin-6-yl)methyl)-3H-[1,2,3]triazolo[4,5-b]pyridin-5-yl) benzamide]

Continued, molecule first:

SMILES: Cc1cc(-c2ccc3ncn(Cc4ccc5ncccc5c4)c3n2)ccc1C(N)=O [Example 1018, 2-methyl-4-(3-(quinolin-6-ylmethyl)-3H-imidazo[4,5-b]pyridin-5-yl) benzamide]
- inhibition at 0.1 µM ([1]; MKN-45, Table 4C): 25 to 50%
- inhibition ([2]; Table 4C): 50 to 75%

SMILES: CC(C)(O)CONC(=O)c1ccc(-c2ccc3ncn(Cc4ccc5ncccc5c4)c3n2)cc1Cl [Example 114, 2-Chloro-N-(2-hydroxy-2-methyl-propoxy)-4-(3-quinolin-6-ylmethyl-3H-imidazo[4,5-b]pyridin-5-yl)-benzamide]
- inhibition at 0.1 µM ([2]; Table 4B): 75 to 100%

SMILES: CC(C)(O)CONC(=O)c1c(F)cc(-c2ccc3nnn(Cc4ccc5ncccc5c4)c3n2)cc1F [Example 34, 2,6-difluoro-N-(2-hydroxy-2-methylpropoxy)-4-(3-(quinolin-6-ylmethyl)-3H-[1,2,3]triazolo[4,5-b]pyridin-5-yl)benzamide]
- inhibition at 0.1 µM ([1]; MKN-45, Table 4A): 75 to 100%
- GI50 ([1]; MKN-45, Table 4A): 25 to 50 nM
- inhibition at 0.1 µM ([2]; Table 4A): 75 to 100%

SMILES: CC(c1ccc2ncccc2c1)n1cnc2ccc(-c3ccc(C(N)=O)c(Cl)c3)nc21 (stereo not shown) [Example 1021, 2-chloro-4-(3-(1-(quinolin-6-yl)ethyl)-3H-imidazo[4,5-b]pyridin-5-yl)benzamide]
- inhibition at 0.1 µM ([1]; MKN-45, Table 4C): 25 to 50%
- inhibition ([2]; Table 4C): < 25%

SMILES: NC(=O)c1c(F)cc(-c2ccc3ncn(Cc4ccc5ncccc5c4)c3n2)cc1F [Example 1010, 2,6-difluoro-4-(3-(quinolin-6-ylmethyl)-3H-imidazo[4,5-b]pyridin-5-yl) benzamide]
- inhibition ([2]; Table 4C): < 25%

SMILES: C/C(=N\OCCNC(N)=O)c1ccc2nnn(Cc3ccc4ncccc4c3)c2n1 [Example 64, 1-(2-(1-(3-(quinolin-6-ylmethyl)-3H-[1,2,3]triazolo[4,5-b]pyridin-5-yl)ethylideneaminooxy)ethyl)urea]
- inhibition at 0.1 µM ([2]; Table 4A): 50 to 75%

SMILES: NC(=O)c1ccc(-c2ccc3nnn(Cc4ccc5[nH]c(=O)ccc5c4)c3n2)cc1Cl [Example 1004, 2-chloro-4-(3-((2-oxo-1,2-dihydroquinolin-6-yl)methyl)-3H-[1,2,3]triazolo[4,5-b]pyridin-5-yl)benzamide]
- inhibition ([2]; Table 4C): < 25%

SMILES: NC(=O)c1c(F)cc(-c2ccc3nnn(Cc4ccc5[nH]c(=O)ccc5c4)c3n2)cc1F [Example 1005, 2,6-difluoro-4-(3-((2-oxo-1,2-dihydroquinolin-6-yl)methyl)-3H-[1,2,3]triazolo[4,5-b]pyridin-5-yl)benzamide]
- inhibition at 0.1 µM ([2]; Table 4C): < 25%

SMILES: NC(=O)N/N=C(\N)c1ccc2nnn(Cc3ccc4ncccc4c3)c2n1 [Example 52, 2-(amino(3-(quinolin-6-ylmethyl)-3H-[1,2,3]triazolo[4,5-b]pyridin-5-yl)methylene)hydrazinecarboxamide]
- inhibition ([2]; Table 4A): < 25%

SMILES: CCNC(=O)c1ccc(-c2ccc3ncn(Cc4ccc5ncccc5c4)c3n2)cc1Cl [Example 1013, 2-chloro-N-ethyl-4-(3-(quinolin-6-ylmethyl)-3H-imidazo[4,5-b]pyridin-5-yl)benzamide]
- inhibition ([2]; Table 4C): < 25%

SMILES: CN(C)CCNC(=O)c1ccc(-c2ccc3ncn(Cc4ccc5ncccc5c4)c3n2)cc1Cl [Example 101, 2-chloro-N-(2-(dimethylamino)ethyl)-4-(3-(quinolin-6-ylmethyl)-3H-imidazo[4,5-b]pyridin-5-yl)benzamide]
- inhibition ([2]; Table 4B): < 25%

SMILES: C/C(=N\N1CC(=O)NC1=O)c1ccc2nnn(Cc3ccc4ncccc4c3)c2n1 [Example 54, (E/Z)-1-(1-(3-(quinolin-6-ylmethyl)-3H-[1,2,3]triazolo[4,5-b]pyridin-5-yl)ethylideneamino)imidazolidine-2,4-dione]
- inhibition ([2]; Table 4A): 25 to 50%

SMILES: NC(=O)c1ccc(-c2ccc3nnn(Cc4cc5ccc[n+]([O-])c5cc4F)c3n2)cc1Cl [Example 1002]
- inhibition at 0.1 µM ([2]; Table 4C): < 25%
